Experimental data from patent US9726663B2, “Method of identifying or evaluating synergistic combinations of actives and compositions containing the same” (The Procter & Gamble Company, priority 2012, dated 2017).

How the values were obtained:
[1] = tested on: human, dermal fibroblasts (BJ cell line); experiment: Oxygen consumption rate (oxidative phosphorylation) of fibroblasts, XF Extracellular Flux Analyzer; assay type: cell-based; set-up: Average OCR value per treatment group: unit not given here
Protocol: (§1) With regard to the fibroblasts discussed above in FIGS. 5A, 5B, SC, 5D, 5E, 6, 7A, 7B, 7C, 7D, 7E and 8 frozen, human dermal fibroblasts were obtained from the BJ cell line commercially available from ATCC, Bethesda, Md. The fibroblasts were grown to 70-80% confluence in a fibroblast culture medium of Eagle's Minimum Essential Medium (“EMEM”) supplemented with 10% fetal bovine serum (“FBS”) and gentamicin/amphotericin B ×500 solution (EMEM and FBS are available from ATCC and gentamicin/amphotericin B ×500 solution is available from Invitrogen). […] Each well included 100 μL of the fibroblast medium described above. A test medium was made from Dulbecco's Modified Eagle Medium (available from Seahorse Bioscience), 25 mM Glucose and 1 mM pyruvate. The test medium was warmed to 37° C. and the pH adjusted to 7.4. The cells were grown and plated at 37° C. and 5% CO2 air. The fibroblast medium in the wells was replaced by the test medium 1 hour prior to taking measurements. Oxygen consumption rate and extracellular acidification rate may be detected using an XF Extracellular Flux Analyzer or equivalent. The device should be capable of non-lethally and simultaneously detecting metabolic indicators of the oxphos and glycolysis pathways in a controlled environment, as well as providing […]. The cells may be provided in a multi-well plate suitable for use with the instrument (e.g., 24-well or 96 well plate) and washed prior to testing. The cells may be washed by any suitable means known in the art (e.g., using a Seahorse Biosciences XF prep station). It may be desirable to use a suitable prep station such as an XF prep station available from Seahorse Biosciences). When washing the cells, it may be desirable to remove the medium from the wells and wash the cells three times with a suitable amount of test medium (e.g., 180 μL in a 96-well plate or 600 μL in a 24-well plate). After washing the cells, a suitable amount (e.g., 180 μL) of an appropriate test medium is placed in each well, and the cells are equilibrated at 37° C. in a CO2-free incubator for 1-1.5 hours prior to taking placing the plate in the instrument for testing. Following the equilibration period, load the plate containing the cells into the instrument and equilibrate according to manufacturer's instructions. The entire test is conducted at 37° C. In some embodiments, the instrument may be to provide a three minute mix cycle, a two minute wait cycle, and a 3 minute measurement cycle for keratinocytes and a two minute mix cycle, two minute wait cycle, and 3 minute measurement cycle for fibroblasts. The cycles should be repeated for at least 88 minutes. It is to be appreciated that the cycles and times may be modified according to cell type and experiment design, as desired. The following example illustrates how the method herein can be used to identify synergistic combinations of skin care actives. Hydrogen peroxide is a well known ROS, and is used in this example to illustrate the undesirable metabolic effects associated with exposure of a cell to an oxidative stressor. The hydrogen peroxide was prepared at 10X working concentration in the fibroblast test medium described above. The test agents are niacinamide (also known as vitamin B3) and tocoquinone both commercially available from Sigma. The test agents were each prepared at 10× the final working concentration in the fibroblast test medium described above to provide a test agent solution. The stressor solution and the test agent solutions were both warmed to 37° C. and pH adjusted to 7.4. The cells are frozen, human, dermal fibroblasts obtained from ATCC (BJ cell line). The cells were cultured and prepared according to the test method described above. The fibroblasts were plated in Gelatin-coated, 96-well plate. Each well contained approximately 4×10^4 cells and 180 μL of fibroblast test medium (i.e., Seahorse Biosciences DMEM, 25 mM glucose and 1 mM pyruvate) at 37° C. and pH 7.4. […]

[2] = tested on: human, dermal fibroblasts (BJ cell line); experiment: Extracellular acidification rate (glycolysis) of fibroblasts, XF Extracellular Flux Analyzer; assay type: cell-based
Protocol: as §1

[3] = rate number 1, before addition of stressor/test agents (basal)
[4] = rate number 2, before addition of stressor/test agents (basal)
[5] = rate number 3, before addition of stressor/test agents (basal, reference)
[6] = rate number 4, 1.5 mM hydrogen peroxide, 0.25 mM niacinamide, 0.025 mM tocoquinone
[7] = rate number 5, 1.5 mM hydrogen peroxide, 0.25 mM niacinamide, 0.025 mM tocoquinone
[8] = rate number 6, 1.5 mM hydrogen peroxide, 0.25 mM niacinamide, 0.025 mM tocoquinone
[9] = rate number 7, 1.5 mM hydrogen peroxide, 0.25 mM niacinamide, 0.025 mM tocoquinone
[10] = rate number 8, 1.5 mM hydrogen peroxide, 0.25 mM niacinamide, 0.025 mM tocoquinone
[11] = rate number 9, 1.5 mM hydrogen peroxide, 0.25 mM niacinamide, 0.025 mM tocoquinone
[12] = rate number 10, 1.5 mM hydrogen peroxide, 0.25 mM niacinamide, 0.025 mM tocoquinone
[13] = rate number 11, 1.5 mM hydrogen peroxide, 0.25 mM niacinamide, 0.025 mM tocoquinone
[14] = rate number 12, 1.5 mM hydrogen peroxide, 0.25 mM niacinamide, 0.025 mM tocoquinone
[15] = rate number 13, 1.5 mM hydrogen peroxide, 0.25 mM niacinamide, 0.025 mM tocoquinone
[16] = rate number 14, 1.5 mM hydrogen peroxide, 0.25 mM niacinamide, 0.025 mM tocoquinone
[17] = rate number 15, 1.5 mM hydrogen peroxide, 0.25 mM niacinamide, 0.025 mM tocoquinone
[18] = rate number 16, 1.5 mM hydrogen peroxide, 0.25 mM niacinamide, 0.025 mM tocoquinone
[19] = rate number 17, 1.5 mM hydrogen peroxide, 0.25 mM niacinamide, 0.025 mM tocoquinone
[20] = rate number 18, 1.5 mM hydrogen peroxide, 0.25 mM niacinamide, 0.025 mM tocoquinone

| Compound | Average OCR value per treatment group [1, 3] | Average OCR value per treatment group [1, 4] | Average OCR value per treatment group [1, 5] | Average OCR value per treatment group [1, 6] | Average OCR value per treatment group [1, 7] | Average OCR value per treatment group [1, 8] | Average OCR value per treatment group [1, 9] | Average OCR value per treatment group [1, 10] | Average OCR value per treatment group [1, 11] | Average OCR value per treatment group [1, 12] | Average OCR value per treatment group [1, 13] | Average OCR value per treatment group [1, 14] | Average OCR value per treatment group [1, 15] | Average OCR value per treatment group [1, 16] | Average OCR value per treatment group [1, 17] | Average OCR value per treatment group [1, 18] | Average OCR value per treatment group [1, 19] | Average OCR value per treatment group [1, 20] | Average ECAR value per treatment group [2, 3] | Average ECAR value per treatment group [2, 4] | also measured |
| --- | --- | --- | --- | --- | --- | --- | --- | --- | --- | --- | --- | --- | --- | --- | --- | --- | --- | --- | --- | --- | --- |
| OO [hydrogen peroxide, reference compound] | 97.05 | 99.80 | 100 | −139.75 | −4.58 | −6.07 | −24.10 | −34.10 | −44.54 | −53.81 | −58.25 | −63.85 | −70.69 | −73.38 | −76.46 | −76.97 | −76.26 | −76.76 | 101.82 percentage of rate 3 | 100.66 percentage of rate 3 | effect on OCR (oxphos metabolism) ([1]; 1.5 mM H2O2 by itself): relatively sharp decrease in OCR followed by a less rapid increase; effect on extracellular acidification rate (glycolysis metabolism) ([2]; 1.5 mM hydrogen peroxide by itself): substantial decrease in extracellular acidification rate; Average ECAR value per treatment group [2, 5]: 100 percentage of rate 3; Average ECAR value per treatment group [2, 6]: 48.46 percentage of rate 3; Average ECAR value per treatment group [2, 7]: 29.55 percentage of rate 3; Average ECAR value per treatment group [2, 8]: 33.64 percentage of rate 3; Average ECAR value per treatment group [2, 9]: 37.41 percentage of rate 3; Average ECAR value per treatment group [2, 10]: 28.20 percentage of rate 3; Average ECAR value per treatment group [2, 11]: 17.74 percentage of rate 3; Average ECAR value per treatment group [2, 12]: 15.41 percentage of rate 3; Average ECAR value per treatment group [2, 13]: 14.87 percentage of rate 3; Average ECAR value per treatment group [2, 14]: 13.82 percentage of rate 3; Average ECAR value per treatment group [2, 15]: 13.32 percentage of rate 3; Average ECAR value per treatment group [2, 16]: 12.78 percentage of rate 3; Average ECAR value per treatment group [2, 17]: 11.82 percentage of rate 3; Average ECAR value per treatment group [2, 18]: 11.52 percentage of rate 3; Average ECAR value per treatment group [2, 19]: 11.36 percentage of rate 3; Average ECAR value per treatment group [2, 20]: 11.57 percentage of rate 3 |
| NC(=O)c1cccnc1 [niacinamide] | 99.16 | 101.76 | 100 | −21.15 | 63.31 | 60.15 | 47.41 | 38.52 | 34.85 | 32.39 | 31.10 | 32.43 | 30.49 | 29.48 | 28.18 | 26.95 | 25.83 | 23.41 | 107.35 percentage of rate 3 | 99.41 percentage of rate 3 | effect on reduction in OCR caused by hydrogen peroxide ([1]; in combination with 1.5 mM H2O2, 0.25 mM niacinamide, 0.025 mM tocoquinone): appears to lessen the reduction in OCR caused by the hydrogen peroxide; effect on acidification rate (glycolysis metabolism) ([2]; 0.25 mM niacinamide added by itself, no hydrogen peroxide): does not significantly affect glycolysis metabolism; effect on glycolysis metabolism in combination with hydrogen peroxide ([2]; added in combination with 1.5 mM hydrogen peroxide): appears to lessen the detrimental effect of the hydrogen peroxide on glycolysis metabolism; Average ECAR value per treatment group [2, 5]: 100 percentage of rate 3; Average ECAR value per treatment group [2, 6]: 64.35 percentage of rate 3; Average ECAR value per treatment group [2, 7]: 33.18 percentage of rate 3; Average ECAR value per treatment group [2, 8]: 34.48 percentage of rate 3; Average ECAR value per treatment group [2, 9]: 42.19 percentage of rate 3; Average ECAR value per treatment group [2, 10]: 49.60 percentage of rate 3; Average ECAR value per treatment group [2, 11]: 55.87 percentage of rate 3; Average ECAR value per treatment group [2, 12]: 60.52 percentage of rate 3; Average ECAR value per treatment group [2, 13]: 62.89 percentage of rate 3; Average ECAR value per treatment group [2, 14]: 60.57 percentage of rate 3; Average ECAR value per treatment group [2, 15]: 57.46 percentage of rate 3; Average ECAR value per treatment group [2, 16]: 55.04 percentage of rate 3; Average ECAR value per treatment group [2, 17]: 52.85 percentage of rate 3; Average ECAR value per treatment group [2, 18]: 51.52 percentage of rate 3; Average ECAR value per treatment group [2, 19]: 49.85 percentage of rate 3; Average ECAR value per treatment group [2, 20]: 47.58 percentage of rate 3 |
